# Patent publication US20080260845A1, “MULTIPLE ACTIVE DRUG RESIN CONJUGATE” (priority 2003, published 2008)
# Test: In vitro drug release (dissolution) of codeine/chlorpheniramine resin conjugate suspension
# Format: physicochemical
# Experimental: The dissolution testing shown in Tables I and II was conducted using a release medium of hydrochloric acid, sodium chloride, and sodium dodecylsulfate. […] The dissolution profile for chlorpheniramine, shown in Table II, also is even and predictable, for example, at the initial testing, 42 percent dissolution of chlorpheniramine at 1 hour, 65 percent at 3 hours, 78 percent at 6 hours, and 88 percent at 12 hours.
# Further, Tables I and II show even, predictable drug release data at one and one half months, 3 months, 6 months, and 9 months, with only very minor variations. […] Thus, with aging of the product, the release profile is consistent, allowing use of the present invention in compliance with various stability requirements for pharmaceutical products.
# [1] = 1-Hour, Initial, HCl/NaCl/sodium dodecylsulfate medium
smiles,measurement,setting,value
"CN(C)CCC(c1ccc(Cl)cc1)c1ccccn1 (stereo not shown) [Chlorpheniramine, chlorpheniramine]",Chlorpheniramine Release,"1-Hour, 1.5M, 4O C. aging",41%
same,Chlorpheniramine Release,"1-Hour, 3M, 4O C. aging",43%
same,Chlorpheniramine Release,"1-Hour, 3M, 25 C. aging",43%
same,Chlorpheniramine Release,"1-Hour, 6M, 4O C. aging",39%
same,Chlorpheniramine Release,"1-Hour, 6M, 25 C. aging",41%
same,Chlorpheniramine Release,"1-Hour, 9M, 25 C. aging",42%
same,Chlorpheniramine Release,[1],1-Hour 42%
same,Chlorpheniramine Release,"1-Hour, Initial, HCl/NaCl/sodium dodecylsulfate medium, listed as chlorpheniramine",42%
same,Chlorpheniramine Release,"3-Hour, 1.5M, 4O C. aging",63%
same,Chlorpheniramine Release,"3-Hour, 3M, 4O C. aging",65%
same,Chlorpheniramine Release,"3-Hour, 3M, 25 C. aging",64%
same,Chlorpheniramine Release,"3-Hour, 6M, 4O C. aging",62%
same,Chlorpheniramine Release,"3-Hour, 6M, 25 C. aging",63%
same,Chlorpheniramine Release,"3-Hour, 9M, 25 C. aging",63%
same,Chlorpheniramine Release,"3-Hour, Initial",3-Hour 65%
same,Chlorpheniramine Release,"3-Hour, Initial, listed as chlorpheniramine",65%
same,Chlorpheniramine Release,"6-Hour, 1.5M, 4O C. aging",77%
same,Chlorpheniramine Release,"6-Hour, 3M, 4O C. aging",78%
same,Chlorpheniramine Release,"6-Hour, 3M, 25 C. aging",77%
same,Chlorpheniramine Release,"6-Hour, 6M, 4O C. aging",76%
same,Chlorpheniramine Release,"6-Hour, 6M, 25 C. aging",76%
same,Chlorpheniramine Release,"6-Hour, 9M, 25 C. aging",77%
same,Chlorpheniramine Release,"6-Hour, Initial",6-Hour 78%
same,Chlorpheniramine Release,"6-Hour, Initial, listed as chlorpheniramine",78%
same,Chlorpheniramine Release,"12-Hour, 1.5M, 4O C. aging",87%
same,Chlorpheniramine Release,"12-Hour, 3M, 4O C. aging",90%
same,Chlorpheniramine Release,"12-Hour, 3M, 25 C. aging",88%
same,Chlorpheniramine Release,"12-Hour, 6M, 4O C. aging",87%
same,Chlorpheniramine Release,"12-Hour, 6M, 25 C. aging",87%
same,Chlorpheniramine Release,"12-Hour, 9M, 25 C. aging",88%
same,Chlorpheniramine Release,"12-Hour, Initial",12-Hour 88%
same,Chlorpheniramine Release,"12-Hour, Initial, listed as chlorpheniramine",88%
"COc1ccc2c3c1O[C@H]1[C@@H](O)C=C[C@H]4[C@@H](C2)N(C)CC[C@@]341 [Codeine, codeine]",Codeine Release,"1-Hour, 1.5M, 4O C. aging",55%
same,Codeine Release,"1-Hour, 3M, 4O C. aging",56%
same,Codeine Release,"1-Hour, 3M, 25 C. aging",54%
same,Codeine Release,"1-Hour, 6M, 4O C. aging",54%
same,Codeine Release,"1-Hour, 6M, 25 C. aging",54%
same,Codeine Release,"1-Hour, 9M, 25 C. aging",54%
same,Codeine Release,[1],1-Hour 54%
same,Codeine Release,"1-Hour, Initial, HCl/NaCl/sodium dodecylsulfate medium, listed as codeine",54%
same,Codeine Release,"3-Hour, 1.5M, 4O C. aging",77%
same,Codeine Release,"3-Hour, 3M, 4O C. aging",77%
same,Codeine Release,"3-Hour, 3M, 25 C. aging",75%
same,Codeine Release,"3-Hour, 6M, 4O C. aging",77%
same,Codeine Release,"3-Hour, 6M, 25 C. aging",75%
same,Codeine Release,"3-Hour, 9M, 25 C. aging",75%
same,Codeine Release,"3-Hour, Initial",3-Hour 75%
same,Codeine Release,"3-Hour, Initial, listed as codeine",75%
same,Codeine Release,"6-Hour, 1.5M, 4O C. aging",88%
same,Codeine Release,"6-Hour, 3M, 4O C. aging",88%
same,Codeine Release,"6-Hour, 3M, 25 C. aging",86%
same,Codeine Release,"6-Hour, 6M, 4O C. aging",87%
same,Codeine Release,"6-Hour, 6M, 25 C. aging",85%
same,Codeine Release,"6-Hour, 9M, 25 C. aging",86%
same,Codeine Release,"6-Hour, Initial",6-Hour 86%
same,Codeine Release,"6-Hour, Initial, listed as codeine",86%
same,Codeine Release,"12-Hour, 1.5M, 4O C. aging",95%
same,Codeine Release,"12-Hour, 3M, 4O C. aging",95%
same,Codeine Release,"12-Hour, 3M, 25 C. aging",93%
same,Codeine Release,"12-Hour, 6M, 4O C. aging",94%
same,Codeine Release,"12-Hour, 6M, 25 C. aging",93%
same,Codeine Release,"12-Hour, 9M, 25 C. aging",94%
same,Codeine Release,"12-Hour, Initial",12-Hour 93%
same,Codeine Release,"12-Hour, Initial, listed as codeine",93%
